Results taken from US20260077055A1, “COMPOSITIONS OF POLYPLEXES AND SAPONINS” (SAPREME TECHNOLOGIES B.V., priority 2022, published 2026).

System: A2058 cancer cells
Experiment: pEGFP-N3 polyplex transfection of A2058 cells, light microscopy
Format: cell-based
Conditions: 72 h; SO1861-EMCH or SO1861 = 40 nM supplemented to PAMAM G5-(PEG N3)3.5 polyplexes
Method: Spectrophotometry: Concentrations were determined using either a Thermo Nanodrop 2000 spectrometer or Perkin Elmer Lambda 365 Spectrophotometer. DLS measurements: DLS measurements were performed on a Malvern Nano ZS (Malvern Instruments, U.K.), operating at 633 nm with a 173° scattering angle, at 25 or 37° C. DLS mean diameters were obtained from the intensity particle size distribution provided by Malvern Zetasizer Software. DLS histograms were obtained from the intensity particle size distributions. Zeta-potential: The zeta-potential values of the polyplexes were obtained by laser doppler anemometry (LDA), measuring the mean electrophoretic mobility (Malvern Zetasizer Nano ZS, Malvern Instruments, U.K.). Measurements were performed in 10 mM HEPES pH 7.1, 150 mM NaCl. TEM measurements: TEM measurements were performed on a JEOL JEM-1011 operated at 100 kV electron microscope, equipped with a camera S5 MegaView G2. […] Infrared Spectroscopy: FT-IR spectra were recorded on a Bruker Vertex 70v, equipped with a RockSolid interferometer, after preparing the samples (1-2 mg) as KBr pellets. […] NMR Spectroscopy: 1H NMR spectra were recorded on a 11.7 T Bruker DRX-500 spectrometer. […] Experiments were recorded acquiring 64-512 scans, with a pre-scan delay (d1) of 12 s, and an acquisition time (aq) of 4 s at 300 K. 13C NMR spectrum was recorder on a 9.39 T Varian Innova 400 spectrometer. […]

SMILES: CC(=O)OC1C(C)OC(OC2C(C)OC(OC(=O)[C@]34CCC(C)(C)CC3C3=CCC5[C@@]6(C)CC[C@H](OC7OC(C(=O)O)C(O)C(OC8OCC(O)C(O)C8O)C7OC7OC(CO)C(O)C(O)C7O)[C@@](C)(/C=N/NC(=O)CCCCCN7C(=O)C=CC7=O)C6CC[C@@]5(C)[C@]3(C)C[C@H]4O)C(OC3OC(C)C(OC4OCC(O)C(OC5OC(CO)C(O)C(O)C5O)C4O)C(O)C3O)C2O)C(O)C1OC1OCC(O)C(O)C1O (stereo partly shown) [SO1861-EMCH]
- pEGFP-N3 transfection (eGFP expression): marginal transfection
